Activity calls are given as the source filed them.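 The calls were made as follows: active = compounds lowering Shn3 signal with a fitted half-maximal concentration at most twice the top tested dose; inconclusive = flat curve with 30 to 70% loss, or poor fit; inactive = the rest.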
Target: Schnurri-3 (HIVEP3) mRNA
Assay: endogenous Schnurri-3 transcript knock-down – Clone20 cells, qPCR, dry powder, orthogonal assay for Schnurri-3 inhibitor project, dose response (AID 720695)
Conditions: Shn3 mRNA qPCR, overnight

AC50	Compound
22.3 µM	CC(C)[C@H](NC(=O)OC(C)(C)C)c1nnc(S(=O)(=O)Cc2c(F)cccc2Cl)o1
6.67 µM	COc1cc(CN2CCc3ccccc3C2)ccc1O
8.91 µM	COc1ccc(NC(=O)c2nc(S(=O)(=O)Cc3cccc(C)c3)ncc2Cl)c(OC)c1
11.6 µM	CCOC(=O)c1ccc(NC(=O)Cn2ncc(Cl)c(Cl)c2=O)cc1
28 µM	CCCc1nnc(NC(=O)c2nc(S(=O)(=O)Cc3ccc(C)cc3)ncc2Cl)s1
13.7 µM	O=C(c1nnsc1S(=O)c1ccc(Cl)cc1)N1CCOCC1 (stereo not drawn)
26.6 µM	CN(C(=O)COc1ccccc1C(=O)NCCOc1ccccc1)c1ccccc1

Same assay, conditions: overnight, at 35 µM (top of the series)

Shn3 expression, relative signal	Compound
inactive	CCOC(=O)C1(Cc2ccc(Cl)cc2)CCN(C(C)Cc2ccc(O)c(OC)c2)CC1 (stereo not drawn)
inactive	Cc1cc2c(cc(C(=O)N3CCC(C(=O)NC4CCCC4)CC3)n2Cc2c(F)cccc2Cl)o1
inactive	CN(CC(=O)Nc1cccc(S(=O)(=O)N2CCOCC2)c1)CC(=O)Nc1ccc(Cl)c(C(F)(F)F)c1
inactive	Fc1ccc(-n2nnnc2-c2cnc(-c3cccs3)nc2C(F)(F)F)cc1
inactive	O=C1CSc2ccc(C(=O)Nc3cccc(S(=O)(=O)Nc4ccc(Br)cc4)c3)cc2N1
inactive	Nc1nonc1C(=O)NCCNCc1cc(Br)ccc1OCc1ccc(F)cc1
inactive	O=c1c2ccccc2nc2n1C(CSCc1ccc(Cl)cc1Cl)CS2 (stereo not drawn)
inactive	CN(C)c1nc(-c2ccccn2)nnc1-c1ccccc1
inactive	COc1ccc(NS(=O)(=O)c2ccc(C(=O)N3CCCCCC3)cc2)cc1
inactive	CCCOc1ccccc1C1CC(=O)Nc2cc3c(cc21)OCO3 (stereo not drawn)
inactive	Cc1cc(N2CCCC2=O)cc(C)c1S(=O)(=O)NCCOc1ccc(C(C)(C)C)cc1
inactive	COc1ccc(Nc2nc(N3CCCCC3)c3ccccc3n2)cc1
inactive	CC(=O)N1CCN(C(=O)CCc2cc(C(C)(C)C)c(O)c(C(C)(C)C)c2)CC1
inactive	COc1ccccc1N1CCN(c2ncc(C(=O)N3CCN(c4cccc(Cl)c4)CC3)c3ccccc23)CC1
inactive	CN(C)S(=O)(=O)c1cccc(NC(=O)c2cccc(S(=O)(=O)N3CCc4ccccc43)c2)c1
inactive	CC(=O)Nc1cccc(NC(=O)CSc2ncc(-c3ccc(Cl)cc3)n2Cc2ccco2)c1
inactive	COc1ccc2c(c1)c(CC(=O)Nc1cc(C)ccc1C)c(C)n2C(=O)c1ccc(Cl)cc1
inactive	CC(C)(C)NC(=O)CSc1nc2ccc(NC(=O)CSc3nnnn3Cc3ccccc3)cc2s1
inactive	CCOC(=O)C1CCN(C(=O)c2ccc(OCC(=O)Nc3cccc(C(F)(F)F)c3)c(OC)c2)CC1
inactive	COc1cc2ncnc(N[C@H](C)c3ccccc3)c2cc1OC
inactive	Cc1ccc2cc(CN(CC3CCCO3)C(=O)NC3CCCCC3)c(=O)[nH]c2c1C (stereo not drawn)
